Our source for the TGI values is PubChem BioAssay (NCI).

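Compound exposure: 48 hours, 5 concentrations, 96-well plates. TGI: concentration producing complete growth inhibition.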

For one assay, the system named is 786-0 renal. Description: inhibition of tumour cell growth, NCI panel, 48 h.
For `NC(=O)c1cc2cc(Cl)cc(Cl)c2oc1=Nc1ccc(F)cc1`, the TGI came to 25.3 µM.

As for `COc1ccc2nc(-n3c(/C=C/c4ccccc4O)nc4ccccc4c3=O)sc2c1`, the TGI was over 100 µM.

Compound `CC#CC#C/C=C1/O[C@]2(CCC(OC(C)=O)CO2)[C@@H]2O[C@H]12` (some centres not stated) came in with a TGI of 46.9 µM.

For the compound `CC(=O)OCC1OC(SC2=N/C(=C\c3cc4c(=O)c5ccccc5sc4s3)C(=O)N2c2ccccc2)C(OC(C)=O)C(OC(C)=O)C1OC(C)=O` (configuration not stated), the TGI was over 100 µM.

In the case of `CCOC(=O)N(Cc1cccs1)c1cc(OC)c(OC)c(OC)c1`, the TGI is over 100 µM.

The compound `COC12OC3(C4OC41)C(C(=O)O[C@H]3CO[Si](C)(C)C(C)(C)C)C2C(=O)Oc1ccccc1` (some centres not stated) gave a TGI of over 100 µM.

The next assay relates to A498 renal. Briefly: inhibition of tumour cell growth, NCI panel, 48 h.
Compound `NC(=O)c1cc2cc(Cl)cc(Cl)c2oc1=Nc1ccc(F)cc1` returned a TGI of 35.3 µM.

Turning to `COc1ccc2nc(-n3c(/C=C/c4ccccc4O)nc4ccccc4c3=O)sc2c1`, the TGI was over 100 µM.

In turn, `CC#CC#C/C=C1/O[C@]2(CCC(OC(C)=O)CO2)[C@@H]2O[C@H]12` (some centres not stated) came in with a TGI of 45.7 µM.

In turn, `CC(=O)OCC1OC(SC2=N/C(=C\c3cc4c(=O)c5ccccc5sc4s3)C(=O)N2c2ccccc2)C(OC(C)=O)C(OC(C)=O)C1OC(C)=O` (configuration not stated) came in with a TGI of over 100 µM.

On to `CCOC(=O)N(Cc1cccs1)c1cc(OC)c(OC)c(OC)c1`, for which the TGI is over 100 µM.

`COC12OC3(C4OC41)C(C(=O)O[C@H]3CO[Si](C)(C)C(C)(C)C)C2C(=O)Oc1ccccc1` (some centres not stated) displayed a TGI of over 100 µM.

A further assay concerns EKVX NSCLC. Briefly: inhibition of tumour cell growth, NCI panel, 48 h.
The compound `NC(=O)c1cc2cc(Cl)cc(Cl)c2oc1=Nc1ccc(F)cc1` had a TGI of 34.5 µM.

`COc1ccc2nc(-n3c(/C=C/c4ccccc4O)nc4ccccc4c3=O)sc2c1` yielded a TGI of 39.7 µM.

As to `CC#CC#C/C=C1/O[C@]2(CCC(OC(C)=O)CO2)[C@@H]2O[C@H]12` (some centres not stated), the TGI was found to be 77.5 µM.

On to `CC(=O)OCC1OC(SC2=N/C(=C\c3cc4c(=O)c5ccccc5sc4s3)C(=O)N2c2ccccc2)C(OC(C)=O)C(OC(C)=O)C1OC(C)=O` (configuration not stated), for which the TGI is over 100 µM.

Compound `CCOC(=O)N(Cc1cccs1)c1cc(OC)c(OC)c(OC)c1` registered a TGI of over 100 µM.

`COC12OC3(C4OC41)C(C(=O)O[C@H]3CO[Si](C)(C)C(C)(C)C)C2C(=O)Oc1ccccc1` (some centres not stated): the TGI is over 100 µM.

The next assay concerns HCT-116 colon. Briefly: inhibition of tumour cell growth, NCI panel, 48 h.
Turning to `NC(=O)c1cc2cc(Cl)cc(Cl)c2oc1=Nc1ccc(F)cc1`, the TGI is 38.3 µM.

For the compound `COc1ccc2nc(-n3c(/C=C/c4ccccc4O)nc4ccccc4c3=O)sc2c1`, the TGI turned out to be 65.3 µM.

Compound `CC#CC#C/C=C1/O[C@]2(CCC(OC(C)=O)CO2)[C@@H]2O[C@H]12` (some centres not stated) displayed a TGI of 40.6 µM.

For `CC(=O)OCC1OC(SC2=N/C(=C\c3cc4c(=O)c5ccccc5sc4s3)C(=O)N2c2ccccc2)C(OC(C)=O)C(OC(C)=O)C1OC(C)=O` (configuration not stated), the TGI was over 100 µM.

`CCOC(=O)N(Cc1cccs1)c1cc(OC)c(OC)c(OC)c1`: the TGI was over 100 µM.

`COC12OC3(C4OC41)C(C(=O)O[C@H]3CO[Si](C)(C)C(C)(C)C)C2C(=O)Oc1ccccc1` (some centres not stated) came in with a TGI of over 100 µM.

A further assay relates to HS 578T breast. Briefly: inhibition of tumour cell growth, NCI panel, 48 h.
The compound `NC(=O)c1cc2cc(Cl)cc(Cl)c2oc1=Nc1ccc(F)cc1` yielded a TGI of over 100 µM.

As for `COc1ccc2nc(-n3c(/C=C/c4ccccc4O)nc4ccccc4c3=O)sc2c1`, the TGI was over 100 µM.

`CC#CC#C/C=C1/O[C@]2(CCC(OC(C)=O)CO2)[C@@H]2O[C@H]12` (some centres not stated) yielded a TGI of over 100 µM.

As to `CC(=O)OCC1OC(SC2=N/C(=C\c3cc4c(=O)c5ccccc5sc4s3)C(=O)N2c2ccccc2)C(OC(C)=O)C(OC(C)=O)C1OC(C)=O` (configuration not stated), the TGI was over 100 µM.

Regarding `CCOC(=O)N(Cc1cccs1)c1cc(OC)c(OC)c(OC)c1`, the TGI was over 100 µM.

The compound `COC12OC3(C4OC41)C(C(=O)O[C@H]3CO[Si](C)(C)C(C)(C)C)C2C(=O)Oc1ccccc1` (some centres not stated) registered a TGI of over 100 µM.

The test system of a further assay is MALME-3M melanoma. Description: inhibition of tumour cell growth, NCI panel, 48 h.
As to `NC(=O)c1cc2cc(Cl)cc(Cl)c2oc1=Nc1ccc(F)cc1`, the TGI came out at 43 µM.

`COc1ccc2nc(-n3c(/C=C/c4ccccc4O)nc4ccccc4c3=O)sc2c1` registered a TGI of over 100 µM.

`CC#CC#C/C=C1/O[C@]2(CCC(OC(C)=O)CO2)[C@@H]2O[C@H]12` (some centres not stated) registered a TGI of 35.6 µM.

The compound `CC(=O)OCC1OC(SC2=N/C(=C\c3cc4c(=O)c5ccccc5sc4s3)C(=O)N2c2ccccc2)C(OC(C)=O)C(OC(C)=O)C1OC(C)=O` (configuration not stated) came in with a TGI of over 100 µM.

`CCOC(=O)N(Cc1cccs1)c1cc(OC)c(OC)c(OC)c1` returned a TGI of over 100 µM.

As for `COC12OC3(C4OC41)C(C(=O)O[C@H]3CO[Si](C)(C)C(C)(C)C)C2C(=O)Oc1ccccc1` (some centres not stated), the TGI is over 100 µM.

The subject of the next assay is MDA-MB-435. Description: inhibition of tumour cell growth, NCI panel, 48 h.
For `NC(=O)c1cc2cc(Cl)cc(Cl)c2oc1=Nc1ccc(F)cc1`, the TGI amounted to 44.2 µM.

For the compound `COc1ccc2nc(-n3c(/C=C/c4ccccc4O)nc4ccccc4c3=O)sc2c1`, the TGI was determined as 49.2 µM.

The compound `CC#CC#C/C=C1/O[C@]2(CCC(OC(C)=O)CO2)[C@@H]2O[C@H]12` (some centres not stated) had a TGI of 81.5 µM.

For the compound `CC(=O)OCC1OC(SC2=N/C(=C\c3cc4c(=O)c5ccccc5sc4s3)C(=O)N2c2ccccc2)C(OC(C)=O)C(OC(C)=O)C1OC(C)=O` (configuration not stated), the TGI is over 100 µM.

`CCOC(=O)N(Cc1cccs1)c1cc(OC)c(OC)c(OC)c1`: the TGI stood at 63.2 µM.

In the case of `COC12OC3(C4OC41)C(C(=O)O[C@H]3CO[Si](C)(C)C(C)(C)C)C2C(=O)Oc1ccccc1` (some centres not stated), the TGI was over 100 µM.

The test system of another assay is MOLT-4 leukemia. Briefly: inhibition of tumour cell growth, NCI panel, 48 h.
The compound `NC(=O)c1cc2cc(Cl)cc(Cl)c2oc1=Nc1ccc(F)cc1` registered a TGI of 37.1 µM.

With `COc1ccc2nc(-n3c(/C=C/c4ccccc4O)nc4ccccc4c3=O)sc2c1`, the TGI was over 100 µM.

For the compound `CC#CC#C/C=C1/O[C@]2(CCC(OC(C)=O)CO2)[C@@H]2O[C@H]12` (some centres not stated), the TGI came to 57 µM.

Regarding `CC(=O)OCC1OC(SC2=N/C(=C\c3cc4c(=O)c5ccccc5sc4s3)C(=O)N2c2ccccc2)C(OC(C)=O)C(OC(C)=O)C1OC(C)=O` (configuration not stated), the TGI came out at 54.4 µM.

`CCOC(=O)N(Cc1cccs1)c1cc(OC)c(OC)c(OC)c1`: the TGI was 36 µM.

For the compound `COC12OC3(C4OC41)C(C(=O)O[C@H]3CO[Si](C)(C)C(C)(C)C)C2C(=O)Oc1ccccc1` (some centres not stated), the TGI was over 100 µM.

In a further assay the test system is NCI-H460 lung. Briefly: inhibition of tumour cell growth, NCI panel, 48 h.
The compound `NC(=O)c1cc2cc(Cl)cc(Cl)c2oc1=Nc1ccc(F)cc1` came in with a TGI of 35.5 µM.

`COc1ccc2nc(-n3c(/C=C/c4ccccc4O)nc4ccccc4c3=O)sc2c1` displayed a TGI of over 100 µM.

`CC#CC#C/C=C1/O[C@]2(CCC(OC(C)=O)CO2)[C@@H]2O[C@H]12` (some centres not stated): the TGI was found to be 41.8 µM.

On to `CC(=O)OCC1OC(SC2=N/C(=C\c3cc4c(=O)c5ccccc5sc4s3)C(=O)N2c2ccccc2)C(OC(C)=O)C(OC(C)=O)C1OC(C)=O` (configuration not stated), for which the TGI was over 100 µM.

Regarding `CCOC(=O)N(Cc1cccs1)c1cc(OC)c(OC)c(OC)c1`, the TGI was over 100 µM.

For the compound `COC12OC3(C4OC41)C(C(=O)O[C@H]3CO[Si](C)(C)C(C)(C)C)C2C(=O)Oc1ccccc1` (some centres not stated), the TGI was over 100 µM.

The next assay concerns NCI/ADR-RES ovarian. Briefly: inhibition of tumour cell growth, NCI panel, 48 h.
The compound `NC(=O)c1cc2cc(Cl)cc(Cl)c2oc1=Nc1ccc(F)cc1` came in with a TGI of 34.5 µM.

Compound `COc1ccc2nc(-n3c(/C=C/c4ccccc4O)nc4ccccc4c3=O)sc2c1` registered a TGI of over 100 µM.

The compound `CC#CC#C/C=C1/O[C@]2(CCC(OC(C)=O)CO2)[C@@H]2O[C@H]12` (some centres not stated) gave a TGI of 58.1 µM.
